In patent publication US12065442B2, “Tropomyosin receptor kinase (TRK) degradation compounds and methods of use” (Cullgen (Shanghai), Inc., priority 2018, dated 2024):
Entries after “also recorded” stand apart in the source; their conditions may differ.

system: KM12 cells; assay: Cell viability assay (CellTiter-Glo) in KM12 cells; type: cell-based; details: 500 nM, 12-point 2-fold serial dilution, 3 days (FIG. 4A)

| SMILES | viability of KM12 cells |
| --- | --- |
| O=C1CCC(N2C(=O)c3cccc(NCCOCCOCCOCCC(=O)N4CCN(c5cccc(-c6cnc7ccc(N8CCC[C@@H]8c8cccc(F)c8)nn67)n5)CC4)c3C2=O)C(=O)N1 (stereo partly drawn) [CPD-010, 2-(2,6-Dioxopiperidin-3-yl)-4-((2-(2-(2-(3-(4-(6-(6-((R)-2-(3-fluorophenyl)pyrrolidin-1-yl)imidazo[1,2-b]pyridazin-3-yl)pyridin-2-yl)piperazin-1-yl)-3-oxopropoxy)ethoxy)ethoxy)ethyl)amino)isoindoline-1,3-dione] | inhibited the viability; also recorded: dose-dependently suppressed viability |

same assay, conditions: Homo sapiens, 72 h; Table 2; KM12 cell viability, CellTiter-Glo, 3 days; read-out: IC50

| SMILES | IC50 |
| --- | --- |
| Cc1ncsc1-c1ccc(CNC(=O)[C@@H]2C[C@@H](O)CN2C(=O)[C@@H](NC(=O)CCCCC(=O)N2CCN(c3cccc(-c4cnc5ccc(N6CCC[C@@H]6c6cccc(F)c6)nn45)n3)CC2)C(C)(C)C)cc1 [CPD-001, (2S,4R)-1-((S)-2-(6-(4-(6-(6-((R)-2-(3-Fluorophenyl)pyrrolidin-1-yl)imidazo[1,2-b]pyridazin-3-yl)pyridin-2-yl)piperazin-1-yl)-6-oxohexanamido)-3,3-dimethylbutanoyl)-4-hydroxy-N-(4-(4-methylthiazol-5-yl)benzyl)pyrrolidine-2-carboxamide] | > 1000 nM |
| Cc1ncsc1-c1ccc(CNC(=O)[C@@H]2C[C@@H](O)CN2C(=O)[C@@H](NC(=O)COCCOCC(=O)N2CCN(c3cccc(-c4cnc5ccc(N6CCC[C@@H]6c6cccc(F)c6)nn45)n3)CC2)C(C)(C)C)cc1 [CPD-002, (2S,4R)-1-((S)-2-(2-(2-(2-(4-(6-(6-((R)-2-(3-Fluorophenyl)pyrrolidin-1-yl)imidazo[1,2-b]pyridazin-3-yl)pyridin-2-yl)piperazin-1-yl)-2-oxoethoxy)ethoxy)acetamido)-3,3-dimethylbutanoyl)-4-hydroxy-N-(4-(4-methylthiazol-5-yl)benzyl)pyrrolidine-2-carboxamide] | > 1000 nM |
| Cc1ncsc1-c1ccc(CNC(=O)[C@@H]2C[C@@H](O)CN2C(=O)[C@@H](NC(=O)COCCOCCOCCOCCOCC(=O)N2CCN(c3cccc(-c4cnc5ccc(N6CCC[C@@H]6c6cccc(F)c6)nn45)n3)CC2)C(C)(C)C)cc1 [CPD-003, (2S,4R)-1-((S)-2-(tert-butyl)-20-(4-(6-(6-((R)-2-(3-Fluorophenyl)pyrrolidin-1-yl)imidazo[1,2-b]pyridazin-3-yl)pyridin-2-yl)piperazin-1-yl)-4,20-dioxo-6,9,12,15,18-pentaoxa-3-azaicosanoyl)-4-hydroxy-N-(4-(4-methylthiazol-5-yl)benzyl)pyrrolidine-2-carboxamide] | > 1000 nM |
| Cc1ncsc1-c1ccc(CNC(=O)[C@@H]2C[C@@H](O)CN2C(=O)[C@@H](NC(=O)CCCCCC(=O)N2CCN(c3cccc(-c4cnc5ccc(N6CCC[C@@H]6c6cccc(F)c6)nn45)n3)CC2)C(C)(C)C)cc1 [CPD-004, (2S,4R)-1-((S)-2-(7-(4-(6-(6-((R)-2-(3-Fluorophenyl)pyrrolidin-1-yl)imidazo[1,2-b]pyridazin-3-yl)pyridin-2-yl)piperazin-1-yl)-7-oxoheptanamido)-3,3-dimethylbutanoyl)-4-hydroxy-N-(4-(4-methylthiazol-5-yl)benzyl)pyrrolidine-2-carboxamide] | 176 nM |
| Cc1ncsc1-c1ccc(CNC(=O)[C@@H]2C[C@@H](O)CN2C(=O)[C@@H](NC(=O)CCOCCOCCOCCOCCOCCC(=O)N2CCN(c3cccc(-c4cnc5ccc(N6CCC[C@@H]6c6cccc(F)c6)nn45)n3)CC2)C(C)(C)C)cc1 [CPD-005, (2S,4R)-1-((S)-2-(tert-butyl)-22-(4-(6-(6-((R)-2-(3-Fluorophenyl)pyrrolidin-1-yl)imidazo[1,2-b]pyridazin-3-yl)pyridin-2-yl)piperazin-1-yl)-4,22-dioxo-7,10,13,16,19-pentaoxa-3-azadocosanoyl)-4-hydroxy-N-(4-(4-methylthiazol-5-yl)benzyl)pyrrolidine-2-carboxamide] | > 1000 nM |
| Cc1ncsc1-c1ccc(CNC(=O)[C@@H]2C[C@@H](O)CN2C(=O)[C@@H](NC(=O)CCC(=O)N2CCN(c3cccc(-c4cnc5ccc(N6CCC[C@@H]6c6cccc(F)c6)nn45)n3)CC2)C(C)(C)C)cc1 [CPD-006, (2S,4R)-1-((S)-2-(4-(4-(6-(6-((R)-2-(3-Fluorophenyl)pyrrolidin-1-yl)imidazo[1,2-b]pyridazin-3-yl)pyridin-2-yl)piperazin-1-yl)-4-oxobutanamido)-3,3-dimethylbutanoyl)-4-hydroxy-N-(4-(4-methylthiazol-5-yl)benzyl)pyrrolidine-2-carboxamide] | 500 nM |
| Cc1ncsc1-c1ccc(CNC(=O)[C@@H]2C[C@@H](O)CN2C(=O)[C@@H](NC(=O)CCOCCC(=O)N2CCN(c3cccc(-c4cnc5ccc(N6CCC[C@@H]6c6cccc(F)c6)nn45)n3)CC2)C(C)(C)C)cc1 [CPD-007, (2S,4R)-1-((S)-2-(3-(3-(4-(6-(6-((R)-2-(3-Fluorophenyl)pyrrolidin-1-yl)imidazo[1,2-b]pyridazin-3-yl)pyridin-2-yl)piperazin-1-yl)-3-oxopropoxy)propanamido)-3,3-dimethylbutanoyl)-4-hydroxy-N-(4-(4-methylthiazol-5-yl)benzyl)pyrrolidine-2-carboxamide] | > 1000 nM |
| Cc1ncsc1-c1ccc(CNC(=O)[C@@H]2C[C@@H](O)CN2C(=O)[C@@H](NC(=O)COCC(=O)N2CCN(c3cccc(-c4cnc5ccc(N6CCC[C@@H]6c6cccc(F)c6)nn45)n3)CC2)C(C)(C)C)cc1 [CPD-008, (2S,4R)-1-((S)-2-(2-(2-(4-(6-(6-((R)-2-(3-Fluorophenyl)pyrrolidin-1-yl)imidazo[1,2-b]pyridazin-3-yl)pyridin-2-yl)piperazin-1-yl)-2-oxoethoxy)acetamido)-3,3-dimethylbutanoyl)-4-hydroxy-N-(4-(4-methylthiazol-5-yl)benzyl)pyrrolidine-2-carboxamide] | > 1000 nM |
| O=C1CCC(N2C(=O)c3cccc(NCCCCCCC(=O)N4CCN(c5cccc(-c6cnc7ccc(N8CCC[C@@H]8c8cccc(F)c8)nn67)n5)CC4)c3C2=O)C(=O)N1 (stereo partly drawn) [CPD-009, 2-(2,6-Dioxopiperidin-3-yl)-4-((7-(4-(6-(6-((R)-2-(3-fluorophenyl)pyrrolidin-1-yl)imidazo[1,2-b]pyridazin-3-yl)pyridin-2-yl)piperazin-1-yl)-7-oxoheptyl)amino)isoindoline-1,3-dione] | 35 nM |
| O=C1CCC(N2C(=O)c3cccc(NCCOCCOCCOCCC(=O)N4CCN(c5cccc(-c6cnc7ccc(N8CCC[C@@H]8c8cccc(F)c8)nn67)n5)CC4)c3C2=O)C(=O)N1 (stereo partly drawn) [CPD-010, 2-(2,6-Dioxopiperidin-3-yl)-4-((2-(2-(2-(3-(4-(6-(6-((R)-2-(3-fluorophenyl)pyrrolidin-1-yl)imidazo[1,2-b]pyridazin-3-yl)pyridin-2-yl)piperazin-1-yl)-3-oxopropoxy)ethoxy)ethoxy)ethyl)amino)isoindoline-1,3-dione] | 30 nM |
| Cc1ncsc1-c1ccc(CNC(=O)[C@@H]2C[C@@H](O)CN2C(=O)[C@@H](NC(=O)COCCOCCOCC(=O)N2CCN(c3cccc(-c4cnc5ccc(N6CCC[C@@H]6c6cccc(F)c6)nn45)n3)CC2)C(C)(C)C)cc1 [CPD-011, (2S,4R)-1-((S)-2-(tert-butyl)-14-(4-(6-(6-((R)-2-(3-Fluorophenyl)pyrrolidin-1-yl)imidazo[1,2-b]pyridazin-3-yl)pyridin-2-yl)piperazin-1-yl)-4,14-dioxo-6,9,12-trioxa-3-azatetradecanoyl)-4-hydroxy-N-(4-(4-methylthiazol-5-yl)benzyl)pyrrolidine-2-carboxamide] | > 1000 nM |
| Cc1ncsc1-c1ccc(CNC(=O)[C@@H]2C[C@@H](O)CN2C(=O)[C@@H](NC(=O)CCCC(=O)N2CCN(c3cccc(-c4cnc5ccc(N6CCC[C@@H]6c6cccc(F)c6)nn45)n3)CC2)C(C)(C)C)cc1 [CPD-012, (2S,4R)-1-((S)-2-(5-(4-(6-(6-((R)-2-(3-Fluorophenyl)pyrrolidin-1-yl)imidazo[1,2-b]pyridazin-3-yl)pyridin-2-yl)piperazin-1-yl)-5-oxopentanamido)-3,3-dimethylbutanoyl)-4-hydroxy-N-(4-(4-methylthiazol-5-yl)benzyl)pyrrolidine-2-carboxamide] | > 1000 nM |
